From PubChem BioAssay AID1249 (Columbia University Molecular Screening Center, 2008)
Calls of active or inactive are those of the source. How the calls were made is not given here.

Test: cellular cytoskeleton assembly phenotype modulators – imaging, high-content imaging, retest and dose response, confirmation (AID 1249);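 further: compound exposure lasted 24 h before fixation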;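 on inhibition: plate controls were untreated cells for no effect and reference compound treated cells for full effect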
Details: cell-based imaging, cytoskeleton assembly phenotype, high content; at 2 µM; stronger effect = higher value
For `NC(=O)c1c(NC(=O)Cc2cccs2)sc2c1CCC2`, the inhibition was 6.6% (inactive). In the case of `O=c1cc(C(Cl)(Cl)Cl)oc2c1ccc1ccccc12`, the inhibition is reported as -13.6% (inactive). In the case of `Cc1nn(S(=O)(=O)c2ccccc2)c(C)c1Sc1ccc([N+](=O)[O-])cc1`, the inhibition is reported as 2.5% (inactive). With `Cc1csc(NC(=O)CSc2nnc(-c3cccs3)n2C)n1` the inhibition was -10.1% (inactive). For `O=S(=O)(c1cccc(-n2cnnn2)c1)N1CCOCC1`, the inhibition was -4.7% (inactive). In the case of `O=C(Nc1ccccc1)N1CCC(c2ccccc2)C1` (stereo not given), the inhibition is reported as -9.2% (inactive). In the case of `COc1ccc(Cn2nnnc2C(c2cccs2)N2CCSCC2)cc1` (stereo not given), the inhibition is reported as -3.9% (inactive). In the case of `CN1C(=O)N(C)C(=O)C2(Cc3ccccc3N3CCOCC32)C1=O` (stereo not given), the inhibition is reported as -1.2% (inactive). In the case of `CC(C)CN(C(=O)COC(=O)CCc1c[nH]c2ccccc12)C1CCS(=O)(=O)C1` (stereo not given), the inhibition is reported as -23.6% (inactive). For `Cc1ccc(-c2noc(CSc3nc(N)cc(N)n3)n2)cc1`, the inhibition was -8.4% (inactive). With `COc1ccc(C)cc1S(=O)(=O)Nc1cccc(SC)c1` the inhibition was 3.7% (inactive). In the case of `COc1cccc(C(=O)COc2cccc(NC(=O)c3cccc([N+](=O)[O-])c3)c2)c1`, the inhibition is reported as -2.2% (inactive). With `CCOC(=O)c1[nH]c(C)c(C(=O)c2ccc(C)cc2)c1C` the inhibition was 10.5% (inactive). For `CN(C)c1cccc(C(=O)Nc2ccc(N3CCOCC3)cc2)c1`, the inhibition was -5.4% (inactive). With `CCOc1ccc2nc(C)cc(Nc3ccc4c(c3)OCCO4)c2c1` the inhibition was 7.5% (inactive). For `NC(=S)N/N=C/c1ccc(-c2ccc(Cl)c(Cl)c2)o1`, the inhibition was -6.9% (inactive). With `CCC1=NC(c2ccccc2Cl)N(O)C1(C)C` (stereo not given) the inhibition was 7.9% (inactive). In the case of `O=C(COC(=O)C1c2ccccc2Oc2ccccc21)NC1CCS(=O)(=O)C1` (stereo not given), the inhibition is reported as -16.7% (inactive). With `C/C(Cl)=C\Cn1c(NCCCn2ccnc2)nc2c1c(=O)n(C)c(=O)n2C` the inhibition was -1.5% (inactive). For `CN1CCCCc2c1[nH]c1ccccc1c2=O`, the inhibition was 5.2% (inactive). For `CCNc1nc(OC)nc(Oc2ccc(C(=O)OC)cc2)n1`, the inhibition was -22.8% (inactive). In the case of `Cc1cc(NC(=O)C(=O)NCCN2CCN(C(=O)c3cccs3)CC2)ccc1Br`, the inhibition is reported as 0.6% (inactive). For `Cc1cc(NC(=O)C2C3C=CC(C3)C2C(=O)O)no1` (stereo not given), the inhibition was 0.1% (inactive). With `COc1ccccc1C(=O)Nc1ccc2c(c1)nc(CN1CCN(C(C)=O)CC1)n2C` the inhibition was 5.7% (inactive). In the case of `CCOc1cc(S(=O)(=O)Nc2ccccc2CC)ccc1Cl`, the inhibition is reported as -1.7% (inactive). In the case of `O=c1n(Cc2ccccc2F)c2ccccc2n1Cc1ccccc1F`, the inhibition is reported as 5.3% (inactive). For `O=C(Oc1csc(=S)n1C(=O)c1ccccc1)c1ccccc1`, the inhibition was -3% (inactive). For `CCCOC(=O)CSC1=C(C#N)C(c2ccccc2OC)C(C#N)C(=O)N1` (stereo not given), the inhibition was -1.7% (inactive). For `Cn1cc(-c2nnnn2-c2ccc(Cl)cc2)c(=O)c2ccccc21`, the inhibition was -6.6% (inactive). In the case of `COc1ccc(OC)c(C2CC(=O)c3c([nH]c(C(=O)OC(C)C)c3C)C2)c1` (stereo not given), the inhibition is reported as 8.4% (inactive). In the case of `COc1ccc(S(=O)(=O)Nc2nc3n(n2)C(c2ccc(Cl)cc2)CC(=O)N3)cc1` (stereo not given), the inhibition is reported as 4.9% (inactive). In the case of `CCOc1ccccc1N1C(=O)NC(=O)C(CCc2ccncc2)(CCc2ccncc2)C1=O`, the inhibition is reported as -4.8% (inactive). In the case of `COC(=O)CN(c1ccc(F)cc1)S(=O)(=O)c1ccc2c(c1)OCCO2`, the inhibition is reported as 10.7% (inactive). With `CC(C)n1c(C(=O)OCC(=O)NCc2ccc3c(c2)OCO3)cc2sccc21` the inhibition was 14.1% (inactive). With `CC(=O)c1cccc(NS(=O)(=O)c2c(C)noc2C)c1` the inhibition was -13.9% (inactive). For `COc1cc(C(=O)N2CCN(c3cc(Cl)ccc3Cl)CC2)cc(OC)c1OC`, the inhibition was -2.9% (inactive). In the case of `COc1ccccc1OCCn1cc(C(=O)c2ccco2)c2ccccc21`, the inhibition is reported as 3.7% (inactive). With `COc1cccc(/C=N/Nc2nc(Nc3ccccc3)nc(-n3nc(C)cc3C)n2)c1O` the inhibition was 1.2% (inactive). With `COc1ccc(N2CCN(C(=O)CSc3nnc4c(C)cc5cc(C)ccc5n34)CC2)cc1` the inhibition was 3.6% (inactive). In the case of `O=C1C(Cc2ccccc2)NC(=S)N1c1ccccc1` (stereo not given), the inhibition is reported as 3.1% (inactive). In the case of `CC(C)(CO)NC(=O)CCCOc1ccc(Cl)cc1Cl`, the inhibition is reported as -0.1% (inactive). In the case of `O=C(OCC(=O)N1CCN(c2ccccc2)CC1)c1ccc2ncsc2c1`, the inhibition is reported as 0.2% (inactive). With `O=C(N/N=C/c1ccc[nH]1)c1sc2ccccc2c1Cl` the inhibition was -8.7% (inactive). With `Cc1ccc(OCc2ccoc2C(=O)O)cc1C` the inhibition was -8.8% (inactive). For `O=C(CN1CCN(c2nc(-c3ccc(F)cc3)cs2)CC1)Nc1ccc2c(c1)OCO2`, the inhibition was -7.5% (inactive). With `Cc1ccc(OCC(=O)N2CCN(C(=O)Cc3ccccc3)CC2)cc1` the inhibition was -4.3% (inactive). In the case of `CCOC(=O)C1CCN(Cc2ccccc2C)CC1`, the inhibition is reported as 5.4% (inactive).

Same assay, conditions: cell-based imaging, cytoskeleton assembly phenotype, high content; cell count; at 10 µM; stronger effect = lower value
In the case of `COc1cc(C(=O)N/N=C/c2ccsc2C)cc(OC)c1OC`, the cell count is reported as 34.2%. Compound `COCCOC(=O)c1[nH]c2c(c1C)C(=O)CC(c1ccccc1)C2` (stereo not given) has a cell count of 56%. `COc1cc(C2C(C#N)=C(N)Oc3cc(N(C)C)ccc32)cc2c1OCO2` (stereo not given) showed a cell count of 39.3%.
